Assay results taken from patent US10906897B2, “Microbiocidal heterobicyclic derivatives” (priority 2015, dated 2021).

Key:
[1] = tested on: Glomerella lagenarium (Colletotrichum lagenarium); experiment: Glomerella lagenarium (Colletotrichum lagenarium) / liquid culture (Anthracnose); type: cell-based; conditions: Colletotrichum orbiculare, growth inhibition photometrically 3-4 days after application, compared to untreated control
Sclerotinia sclerotiorum = Sclerotinia sclerotiorum / liquid culture (cottony rot); conditions: read-out: control of Sclerotinia sclerotiorum
Procedure: Sclerotinia sclerotiorum/Liquid Culture (Cottony Rot)
Mycelia fragments of a newly grown liquid culture of the fungus are directly mixed into 5 nutrient broth (Vogels broth). After placing a (DMSO) solution of test compound into a microtiter plate (96-well format) the nutrient broth containing the fungal material is added. The test plates are incubated at 24° C. and the inhibition of growth is determined photometrically 3-4 days after application.

[2] = tested on: Botryotinia fuckeliana (Botrytis cinerea); experiment: Botryotinia fuckeliana (Botrytis cinerea) / liquid culture (Gray mould); type: cell-based; conditions: growth inhibition photometrically 3-4 days after application, compared to untreated control
[3] = tested on: Monographella nivalis (Microdochium nivale); experiment: Monographella nivalis (Microdochium nivale) / liquid culture (foot rot cereals); type: cell-based; conditions: 96 h, growth inhibition photometrically 4-5 days after application, compared to untreated control
Fusarium culmorum = experiment: microbe, parasite or virus in culture; type: cell-based; conditions: read-out: control of Fusarium culmorum
[4] = tested on: Magnaporthe grisea (Pyricularia oryzae); experiment: microbe, parasite or virus in culture; type: cell-based; conditions: read-out: control of Magnaporthe grisea
[5] = tested on: Magnaporthe grisea (Pyricularia oryzae); experiment: whole plant or invertebrate; type: in vivo; conditions: foliar, read-out: control of Magnaporthe grisea
Gaeumannomyces graminis = Gaeumannomyces graminis / liquid culture (Take-all of cereals); type: cell-based; conditions: growth inhibition photometrically 4-5 days after application, compared to untreated control

Row | SMILES | inhibition of growth at 20 ppm [1] | melting point | inhibition of growth at 20 ppm (Sclerotinia sclerotiorum) | inhibition of growth at 20 ppm [2] | inhibition of growth at 20 ppm [3] | inhibition of growth at 20 ppm (Fusarium culmorum) | inhibition of growth at 60 ppm [4] | pest or weed control at 200 ppm [5] | inhibition of growth at 20 ppm (Gaeumannomyces graminis)
1 | Cc1ccc2c(C3=NC(C)(C)C(=O)c4c(F)cccc43)cnn2c1C [Compound E-72, 1-(6,7-dimethylpyrazolo[1,5-a]pyridin-3-yl)-5-fluoro-3,3-dimethyl-isoquinolin-4-one] | ≥ 80% | 139 to 141 °C | ≥ 80% | ≥ 80% | ≥ 80% | ≥ 80% | ≥ 80% |  | 
2 | COc1cccc2c(C3=NC(C)(C)C(F)(F)c4ccccc43)cnn12 [Compound E-92, 4,4-difluoro-1-(7-methoxypyrazolo[1,5-a]pyridin-3-yl)-3,3-dimethyl-isoquinoline] | ≥ 80% | 120 to 124 °C |  | ≥ 80% | ≥ 80% | ≥ 80% | ≥ 80% | ≥ 50% | ≥ 80%
3 | Cc1ccc2c(C3=NC4(CC4)C4(CC4)c4ccccc43)cnn2c1C [Compound E-94] | ≥ 80% |  |  |  | ≥ 80% | ≥ 80% | ≥ 80% | ≥ 50% | ≥ 80%
4 | Cc1ccn2c(C3=NC(C)(C)C(F)(F)c4ccccc43)cnc2c1 [Compound E-55, 4,4-difluoro-3,3-dimethyl-1-(7-methylimidazo[1,2-a]pyridin-3-yl)isoquinoline] | ≥ 80% |  | ≥ 80% | ≥ 80% |  | ≥ 80% | ≥ 80% |  | 
5 | Cc1cccn2c(C3=NC4(CCC4)Cc4ccccc43)cnc12 [Compound E-52, 1-(8-methylimidazo[1,2-a]pyridin-3-yl)spiro[4H-isoquinoline-3,1′-cyclobutane]] | ≥ 80% |  | ≥ 80% | ≥ 80% | ≥ 80% |  | ≥ 80% |  | 
6 | Cc1ccc2c(C3=NC(C)(C)C(F)(F)c4cc(F)ccc43)cnn2c1C [Compound E-70, 1-(6,7-dimethylpyrazolo[1,5-a]pyridin-3-yl)-4,4,6-trifluoro-3,3-dimethyl-isoquinoline] | ≥ 80% |  | ≥ 80% | ≥ 80% | ≥ 80% | ≥ 80% | ≥ 80% | ≥ 50% | 
7 | Cc1cccn2ncc(C3=NC4(CC4)C4(CC4)c4ccccc43)c12 [Compound E-95] | ≥ 80% |  |  | ≥ 80% |  |  | ≥ 80% | ≥ 50% | 
8 | Cc1ccc2c(C3=NC(C)(C)C(=O)c4ccccc43)cnn2c1C [Compound E-64, 1-(6,7-dimethylpyrazolo[1,5-a]pyridin-3-yl)-3,3-dimethyl-isoquinolin-4-one] | ≥ 80% | 152 to 153 °C | ≥ 80% | ≥ 80% | ≥ 80% | ≥ 80% | ≥ 80% |  | ≥ 80%
9 | Cc1cccn2c(C3=NCC(C)(C)c4ccccc43)cnc12 [Compound E-51, 4,4-dimethyl-1-(8-methylimidazo[1,2-a]pyridin-3-yl)-3H-isoquinoline] |  |  | ≥ 80% | ≥ 80% |  |  | ≥ 80% |  | 
10 | CC1(C)N=C(c2cnn3cccc(F)c23)c2ccccc2C1(F)F [Compound E-89, 4,4-difluoro-1-(4-fluoropyrazolo[1,5-a]pyridin-3-yl)-3,3-dimethyl-isoquinoline] | ≥ 80% |  | ≥ 80% | ≥ 80% | ≥ 80% | ≥ 80% | ≥ 80% |  | 
11 | Cc1c(Br)ccc2c(C3=NC(C)(C)C(F)(F)c4ccccc43)cnn12 [Compound E-79, 1-(6-bromo-7-methyl-pyrazolo[1,5-a]pyridin-3-yl)-4,4-difluoro-3,3-dimethyl-isoquinoline] | ≥ 80% | 180 to 182 °C | ≥ 80% | ≥ 80% |  | ≥ 80% | ≥ 80% |  | ≥ 80%
12 | Cc1cccc2c(C3=NC(C)(C)C(=O)c4ccccc43)cnn12 [Compound E-67, 3,3-dimethyl-1-(7-methylpyrazolo[1,5-a]pyridin-3-yl)isoquinolin-4-one] | ≥ 80% | 110 to 112 °C | ≥ 80% | ≥ 80% | ≥ 80% | ≥ 80% | ≥ 80% |  | 
13 | Cc1ccn2c(C3=NC(C)(C)C(C)(C)c4c(F)cccc43)cnc2c1C [Compound E-50, 1-(7,8-dimethylimidazo[1,2-a]pyridin-3-yl)-5-fluoro-3,3,4,4-tetramethyl-isoquinoline] | ≥ 80% | 185 to 186 °C | ≥ 80% | ≥ 80% |  | ≥ 80% | ≥ 80% |  | 
14 | Cc1cccn2c(C3=NC(C)(C)C(C)(C)c4c(F)cccc43)cnc12 [Compound E-9, 5-fluoro-3,3,4,4-tetramethyl-1-(8-methylimidazo[1,2-a]pyridin-3-yl)isoquinoline] | ≥ 80% | 160 to 161 °C |  | ≥ 80% | ≥ 80% | ≥ 80% |  | ≥ 50% | ≥ 80%
15 | Cc1ccc2c(C3=NC(C)(C)C(C)(C)c4c(F)cccc43)cnn2c1C [Compound E-63, 1-(6,7-dimethylpyrazolo[1,5-a]pyridin-3-yl)-5-fluoro-3,3,4,4-tetramethyl-isoquinoline] | ≥ 80% | 175 to 176 °C |  | ≥ 80% |  | ≥ 80% | ≥ 80% | ≥ 50% | ≥ 80%
16 | Cc1cccc2c(C3=NC(C)(C)C(F)(F)c4ccccc43)cnn12 [Compound E-66, 4,4-difluoro-3,3-dimethyl-1-(7-methylpyrazolo[1,5-a]pyridin-3-yl)isoquinoline] | ≥ 80% |  | ≥ 80% | ≥ 80% | ≥ 80% | ≥ 80% | ≥ 80% | ≥ 50% | ≥ 80%
17 | Cc1ccc2c(C3=NC(C)(C)C(F)(F)c4c(F)cccc43)cnn2c1C [Compound E-71, 1-(6,7-dimethylpyrazolo[1,5-a]pyridin-3-yl)-4,4,5-trifluoro-3,3-dimethyl-isoquinoline] | ≥ 80% |  | ≥ 80% | ≥ 80% | ≥ 80% | ≥ 80% | ≥ 80% | ≥ 50% | ≥ 80%
18 | CC1(C)N=C(c2cnc3c(F)cccn23)c2cccc(F)c2C1(C)C [Compound E-6, 5-fluoro-1-(8-fluoroimidazo[1,2-a]pyridin-3-yl)-3,3,4,4-tetramethyl-isoquinoline] | ≥ 80% | 156 to 157 °C |  | ≥ 80% | ≥ 80% | ≥ 80% |  | ≥ 50% | ≥ 80%
19 | Cc1ccn2c(C3=NC(C)(C)C(F)(F)c4ccccc43)cnc2c1C [Compound E-57, 1-(7,8-dimethylimidazo[1,2-a]pyridin-3-yl)-4,4-difluoro-3,3-dimethyl-isoquinoline] | ≥ 80% | 159 to 161 °C | ≥ 80% | ≥ 80% | ≥ 80% | ≥ 80% | ≥ 80% | ≥ 50% | 
20 | Cc1cccc2c(C3=NC(C)(C)C(C)(C)c4c(F)cccc43)cnn12 [Compound E-59, 5-fluoro-3,3,4,4-tetramethyl-1-(7-methylpyrazolo[1,5-a]pyridin-3-yl)isoquinoline] | ≥ 80% | 134 to 136 °C |  | ≥ 80% | ≥ 80% | ≥ 80% |  | ≥ 50% | 
21 | Cc1ccc2c(C3=NC(C)(C)C(F)(F)c4ccccc43)cnn2c1C [Compound E-65, 1-(6,7-dimethylpyrazolo[1,5-a]pyridin-3-yl)-4,4-difluoro-3,3-dimethyl-isoquinoline] | ≥ 80% |  | ≥ 80% | ≥ 80% | ≥ 80% | ≥ 80% | ≥ 80% |  | ≥ 80%
22 | Cc1cccn2c(C3=NC(C)(C)C(C)(C)c4ccccc43)cnc12 [Compound E-33, 3,3,4,4-tetramethyl-1-(8-methylimidazo[1,2-a]pyridin-3-yl)isoquinoline] | ≥ 80% |  |  | ≥ 80% | ≥ 80% | ≥ 80% |  | ≥ 50% | 
